“Also recorded” adds a separate entry of the source.
Columns and labels:
[1] = tested on: HSP27 phosphorylation at Ser78 in HeLa cells; assay: Drug-induced HSP27 Ser78 phosphorylation, Western blot; format: cell-based, human; conditions: absence of heat shock, 50 μg/ml 1 h
[2] = tested on: heat induced HSP70 expression in Jurkat cells; assay: Inhibition of heat-induced HSP70 expression, Western blot; format: cell-based, human; conditions: pre-heat treatment 50 μg/ml

Row | Structure (SMILES) | Enhancement of HSP27 phosphorylation (in words) [1] | Inhibition of HSP70 induction (in words) [2]
1 | COc1cc(O)c2c(=O)c(O)c(-c3ccc(O)c(O)c3)oc2c1 [Compound D7] | showed enhancement of HSP27 phosphorylation | –
2 | O=C(O)COc1cc(O)c2c(=O)c(O)c(-c3ccc(O)c(O)c3)oc2c1 [Compound D9] | – | does not inhibit HSP70; also recorded: showed no ability to inhibit HSP70 induction
3 | COC(=O)COc1cc(-c2oc3cc(O)cc(O)c3c(=O)c2O)ccc1O [Compound D1] | did not activate HSP27 phosphorylation | –
4 | COc1cc(-c2oc3cc(O)cc(O)c3c(=O)c2O)ccc1O [Compound D2] | did not activate HSP27 phosphorylation | –
5 | O=c1c(O)c(-c2ccc(O)c(O)c2)oc2cc(O)cc(O)c12 [Quercetin, reference compound] | enhances HSP27 phosphorylation at Ser78 | –
6 | COC(=O)COc1cc(O)c2c(=O)c(O)c(-c3ccc(O)c(O)c3)oc2c1 [Compound D10] | showed enhancement of HSP27 phosphorylation | –
